According to patent US20150366877A1, “METHODS OF TREATMENT OF HUMAN CYTOMEGALOVIRUS INFECTION AND DISEASES WITH BROMODOMAIN INHIBITORS” (Washington University, priority 2013, published 2015):
Where two headings read alike, the source gives them in different places.

What was measured:
HCMV [1] = assay: Anti-HCMV activity in cultured primary human fibroblasts; assay type: cell-based, Human cytomegalovirus
HCMV [2] = assay: Administration to a patient infected with HCMV (HCMV titers); assay type: in vivo, Human cytomegalovirus
Description: A patient is infected with HCMV. A health practitioner administers an amount calculated to provide 1 μM of the bromodomain inhibitor GSK525762A by intraperitoneal injection. The patient's HCMV titers decrease.

[3] = system: HCMV laboratory strain AD169-GFP; assay: microbe, parasite or virus in culture; assay type: cell-based, Human cytomegalovirus; conditions: Human betaherpesvirus 5, AD169, HFF
Description: (§1) Drug effects were calculated as a percentage of reduction in GFPU in the presence of each drug concentration comported to the GFPU determined in the absence of drug. The dose-response curves were calculated using the GraphPad Prism 6 (GraphPad Software, USA),
(§2) In these experiments, the inventors determined the IC50 and IC90 values of respective BET bromodomain inhibitors against HCMV infection using fluorescence reduction assay (FIG. 9; Table 3) s.

[4] = system: HCMV clinical strain TR-GFP; assay: microbe, parasite or virus in culture; assay type: cell-based, Human cytomegalovirus; conditions: Human betaherpesvirus 5, HFF
Description: as §1, §2

[5] = system: HCMV laboratory strain AD169-GFP; assay: Time of addition assay on HCMV replication (GFP units); assay type: cell-based, Human cytomegalovirus; conditions: fixed concentration ~6.5×IC50, added at indicated hpi, GFP units after 7 days
[6] = system: fatty acid synthase (FASN) and solute carrier family 38 member 5 (SLC38A5); assay: RNA-seq differential expression of FASN and SLC38A5 in HCMV-infected HFF; assay type: cell-based, human; conditions: 250 uM, MOI 3, 48 hpi
Description: HFF cells were mock-infected or HCMV infected with laboratory strain AD169-GFP at a MOI of 3. (FIG. 12A) HFF cells were infected with AD169-GFP at a MOI of 3 in the presence or absence of […] (+)-JQ-1. (FIG. 12B) Cells from both (A) and (B) were harvested at 48 hpi and the total RNA was extracted using a column-based RNA purification kit (Qiagen). RNA integrity was evaluated with a Nano-drop spectrometer (NanoDrop, Wilmington, Del.). Messenger RNA purification, fragmentation, construction of sequencing library and sequencing were performed. The differential expression profiles of two c-Myc inducible genes, fatty acid synthase (FASN) and solute carrier family 38 member 5 (SLC38A5), were determined using an EdgeR procedure.

[7] = system: HCMV late proteins (pp71, pp150 and pp28); assay: Immunoblot analysis of HCMV proteins in infected HFFs; assay type: cell-based, Human cytomegalovirus; conditions: MOI 3, different concentrations, 24, 48 and 72 hours post infection
Description: The method is as described by Perng et al. 2011. HFFs were infected with HCMV, strain AD169, at an MOI of 3 in the presence of different concentrations of JQ1. Culture media was changed every 24 hours to maintain the concentration of JQ1. Cells were harvested at 24, 48 and 72 hours post infection, HCMV proteins, immediate-early protein (IE1), early protein (UL69), and late proteins (pp71, pp150 and pp28) were determined by immunoblot analysis. (FIG. 4)

HCMV AD169 strain = assay type: cell-based, Human cytomegalovirus
[8] = system: HCMV clinical strain Toledo; assay: TCID50 assay of culture supernatant (release of viral particles), Toledo; assay type: cell-based, Human cytomegalovirus; conditions: Human betaherpesvirus 5, MOI 3, 5 dpi
Description: (§3) In these experiments, the inventors used TCID50 assays to quantify the IC50 of (+)-JQ-1 in both HCMV laboratory-adapted and clinical strains (FIG. 9; Table 5). HFFs were infected with laboratory strain. AD169-GFP or laboratory strains FIXGFP & Toledo at an MOI of 3 in the presence of (+)-JQ-1 at the range of 0-2,000 nM. Culture media were changed every 24 hrs to maintain the concentration of JQ1. At 5 dpi, viral titers were determined by TCID50.

HCMV, strain AD169 = assay: TCID50 assay of viral progeny in culture media, AD169-infected HFFs; assay type: cell-based, Human cytomegalovirus; conditions: for reduction of viral titer: 125 nM; for IC50: Human betaherpesvirus 5, AD169, 120 h
Description: In this experiment, the inventors used TCID50 assays to determine the amounts of infectious viral particle in culture supernatants release from HCMV-infected cells, HFFs were infected with HCMV, strain AD169, at an MOI of 3 in the presence of different concentrations of JQ1. Culture media was changed every 24 hours to maintain the concentration of JQ1. At 5 (FIG. 2A) and 6 (FIG. 2B) days post infection (DPI), infected culture media was collected and titers of viral progeny in media was determined by TCID50 assay as described by Perng et al., 2011. The detection limit is indicated by the dashed line. (FIG. 2)
HFFs were infected with HCMV, strain AD 169, at an MOI of 3 in the presence of JQ1 at the range of 0-2000 nM. Culture media was changed every 24 hours to maintain the concentration of JQ1. At 5 days post infection, viral titers were determined by TCID50. […] These calculated IC50 values are much lower than published values used in the treatment of cancer.

[9] = system: HCMV, strain AD169 infected human foreskin fibroblasts; assay: Phase-contrast/fluorescence microscopy of HCMV-infected HFF (cytomegaly morphology); assay type: cell-based, Human cytomegalovirus; conditions: 500 nm
Description: In these experiments, human foreskin fibroblasts (HFF) were infected with HCMV, strain AD169, at a multiplicity of infection (MOI) of 3 in the presence or absence of JQ1 […]. Culture media was changed every 24 hours to maintain the concentration of JQ1. Infected cells were examined by phase-contrast or fluorescence microscopy at 72 or 96 hours post infection (hpi). “Cytomegalic” cells appear larger in size with a characteristic intranuclear, homogenous, eosinophilic inclusion which can occupy the entire nucleus of the cell.

[10] = system: HCMV laboratory strain AD169-GFP; assay: TCID50 assay of culture supernatant (release of viral particles), AD169-GFP; assay type: cell-based, Human cytomegalovirus; conditions: Human betaherpesvirus 5, AD169
Description: as §3

[11] = system: HCMV clinical strain TR-GFP; assay type: cell-based, Human cytomegalovirus
[12] = system: HCMV clinical strain FIX-GFP; assay: TCID50 assay of culture supernatant (release of viral particles), FIX-GFP; assay type: cell-based, Human cytomegalovirus; conditions: Human betaherpesvirus 5
Description: as §3

COc1cc(OC)c2c(=O)[nH]c(-c3cc(C)c(OCCO)c(C)c3)nc2c1 [RVX-208, 2-[4-(2-hydroxyethoxy)-3,5-dimethyl-phenyl]-5,7-dimethoxy-3H-quinazolin-4-one]
Concentration to inhibit HCMV replication (HCMV [1]): 14.063 to 28.125 µM
patient's HCMV titers (HCMV [2]; amount calculated to provide 19 μM, intraperitoneal injection): decrease
IC50 [3]: 7930 nM
IC90 [3]: 31100 nM
IC50 [4]: 3160 nM
IC90 [4]: 6670 nM

COc1ccccc1S(=O)(=O)Nc1ccc2c(c1)CN(C)C(=O)N2 [PFI-1, 2-Methoxy-N-(3-methyl-2-oxo-1,2,3,4-tetrahydro-6-quinazolinyl)benzenesulfonamide]
IC50 [3]: 790 nM
IC90 [3]: 2560 nM
IC50 [4]: 420 nM
IC90 [4]: 1220 nM

Nc1ccn(C[C@@H](CO)OCP(=O)(O)O)c(=O)n1 [Cidofovir]
IC50 [3]: 150 nM
IC90 [3]: 1080 nM

CCNC(=O)C[C@@H]1N=C(c2ccc(Cl)cc2)c2cc(OC)ccc2-n2c(C)nnc21 [I-BET762, 2-[(4S)-6-(4-chlorophenyl)-8-methoxy-1-methyl-4H-[1,2,4]triazolo[4,3-a][1,4]benzodiazepine-4-yl]-N-ethylacetamide]
patient's HCMV titers (HCMV [2]; amount calculated to provide 1 μM, intraperitoneal injection): decrease
effect of the time of addition on HCMV replication [5]: block HCMV infections regardless of times post infection

CCOC(=O)Nc1cc(-c2ccc(C)c(NS(C)(=O)=O)c2)nn2c(C)nnc12 [Bromosporine, N-[6-(3-methanesulfonamido-4-methylphenyl)-3-methyl-[1,2,4]triazolo[4,3-b]pyridazin-8-yl]carbamate]
IC50 [3]: 290 nM
IC90 [3]: 640 nM

Cc1sc2c(c1C)C(c1ccc(Cl)cc1)=N[C@@H](CC(N)=O)c1nnc(C)n1-2 [CPI-203, (S)-2-(4-(4-chlorophenyl)-2,3,9-trimethyl-6H-thieno [3,2-f][1,2,4]triazolo[4,3-a][1,4]diazepin-6-yl)acetamide]
IC50 [3]: 40 nM
IC90 [3]: 140 nM

Cc1sc2c(c1C)C(c1ccc(Cl)cc1)=N[C@@H](CC(=O)OC(C)(C)C)c1nnc(C)n1-2 [(+)-JQ1, 4-(4-chlorophenyl)-2,3,9-trimethyl-1,1-dimethylethyl ester-6H-thieno[3,2-f][1,2,4]triazolo[4,3-}{1,4}diazepine-6S-acetic acid]
up-regulation of FASN and SLC38A5 by HCMV infection [6]: up-regulation is reversed
accumulation of HCMV late proteins [7]: modestly inhibits
production of infectious viral particles (electron micrographs) (HCMV AD169 strain): blocks the production of infectious viral particles
IC50 [8]: 22 nM
IC90 [8]: 37 nM
patient's HCMV titers (HCMV [2]; therapeutically effective amount, intraperitoneal injection): decrease
reduction of viral titer (HCMV, strain AD169; 5 days post infection): approximately 1000 fold
reduction of viral titer (HCMV, strain AD169; 6 days post infection): greater than 1000 fold
viral titer (HCMV, strain AD169; 250 nM, 5 days post infection): further reduced the viral titer
viral titer (HCMV, strain AD169; 250 nM, 6 days post infection): undetectable
viral titer (HCMV, strain AD169; 500 nM, 5 days post infection): undetectable
viral titer (HCMV, strain AD169; 500 nM, 6 days post infection): undetectable
IC50 (HCMV, strain AD169; read-out: IC50 (50% viral replication inhibitory concentration), AD169, MOI 3, 5 days post infection, calculated using four parameters): 21.6 nM
IC50 (HCMV, strain AD169; read-out: IC50 (50% viral replication inhibitory concentration), AD169, MOI 3, 5 days post infection, calculated using three parameters): 17.8 nM
IC50 [3]: 77 nM
IC90 [3]: 210 nM
IC50 [4]: 39 nM
IC90 [4]: 93 nM
effect of the time of addition on HCMV replication [5]: block HCMV infections regardless of times post infection
morphology of infected HFF cells ([9]; MOI 3, 72 hours post infection): lost the “cytomegalic” morphology and an accumulation of dead cells was present
morphology of infected HFF cells ([9]; MOI 3, 96 hours post infection): lost the “cytomegalic” morphology and a greater accumulation of floating dead cells were present
IC50 [10]: 18 nM
IC90 [10]: 49 nM
production of infectious viral particles (EM analysis) [11]: blocks the production of infectious viral particles
IC50 [12]: 18 nM
IC90 [12]: 31 nM

Cc1sc2c(c1C)C(c1ccc(Cl)cc1)=N[C@@H](CC(=O)Nc1ccc(O)cc1)c1nnc(C)n1-2 [OTX-015, (S)-2-[4-(4-chlorophenyl)-2,3,9-trimethyl-6H-thieno [3,2-f][1,2,4]triazolo-[4,3-a][1,4]diazepin-6-yl]-N-(4-hydroxyphenyl)acetamide]
patient's HCMV titers (HCMV [2]; therapeutically effective amount, oral administration): decrease
IC50 [3]: 69 nM
IC90 [3]: 210 nM
IC50 [4]: 29 nM
IC90 [4]: 85 nM
effect of the time of addition on HCMV replication [5]: block HCMV infections regardless of times post infection

Nc1nc(O)c2ncn(COC(CO)CO)c2n1 [Ganciclovir]
IC50 [3]: 1780 nM
IC90 [3]: 25000 nM

COc1cc2c(cc1-c1c(C)noc1C)ncc1[nH]c(=O)n(C(C)c3ccccn3)c12 (stereo in doubt) [I-BET151, 7-(3,5-Dimethyl-1,2-oxazol-4-yl)-8-methoxy-1-[(1R)-1-(2-pyridinyl)ethyl]-1,3-dihydro-2H-imidazo[4,5-c]quinolin-2-one]
Concentration to inhibit HCMV replication (HCMV [1]): 0.391 to 0.781 µM
patient's HCMV titers (HCMV [2]; amount calculated to provide 0.5 μM, intraperitoneal injection): decrease
IC50 [3]: 160 nM
IC90 [3]: 550 nM
IC50 [4]: 110 nM
IC90 [4]: 160 nM

COc1cccc(N2CCN(C3=Nc4c(F)cccc4[C@H](CC(=O)O)N3c3cc(C(F)(F)F)ccc3OC)CC2)c1 [Letermovir]
IC50 [3]: 4.1 nM
IC90 [3]: 5.8 nM
effect of the time of addition on HCMV replication [5]: cannot control the viral infection after 48 hours post-infection
